Patent US20210238162A1, “CHEMICAL COMPOUNDS” (GlaxoSmithKline Intellectual Property Development Limited, priority 2015, published 2021)
Where a name gives a salt, the structure may show the parent alone. Read-outs that look alike come from different tables or passages of the source.

Target: T1, haematopoietic prostaglandin D synthase (H-PGDS) (Homo sapiens, UniProt O60760)
T1 construct: Full length human H-PGDS cDNA (Invitrogen Ultimate ORF IOH13026) was amplified by PCR; made in house; host or cells: E. coli BL21 (DE3*), vector pET22b+
Assay: H-PGDS RapidFire High Throughput Mass Spectrometry Assay
Type: biochemical
Method: The H-PGDS RapidFire™ mass spectrometric assay monitors conversion of prostaglandin H2 (PGH2) to prostaglandin D2 (PGD2) by haematopoietic prostaglandin D synthase (H-PGDS). In the assay format described here, the substrate (PGH2) is formed in situ by the action of cyclooxygenase-2 on arachidonic acid. This first step is set up to be fast, and generates a burst of PGH2 at ˜10 μM. The PGH2 is then further converted to PGD2 by the H-PGDS enzyme. […] Plates are then read on the RapidFire™ high throughput solid phase extraction system (Agilent) which incorporates a solid phase extraction step coupled to a triple quadrupole mass spectrometer (AB SCIEX). Relative levels of PGD2 and PGF2α, which acts as a surrogate for substrate, are measured and a percent conversion calculated.
Full length human H-PGDS cDNA (Invitrogen Ultimate ORF IOH13026) was amplified by PCR with the addition of a 5′ 6-His tag and TEV protease cleavage site. The PCR product was digested with Ndel and Xhol and ligated into pET22b+ (Merck Novagen®). Expression was carried out in E. coli strain BL21 (DE3*) using auto-induction Overnight Express™ Instant TB medium (Merck Novagen®) supplemented with 1% glycerol. The culture was first grown at 37° C. and the temperature was reduced to 25° C. when OD600 reached 2.0. Cells were harvested by centrifugation after a further 18 hr. 10 g of E. coli cell pellet was suspended to a total volume of 80 mL in lysis buffer (20 mM Tris-Cl pH 7.5, 300 mM NaCl, 20 mM imidazole, 5 mM β-mercaptoethanol, 10% glycerol). 1 mg/mL protease inhibitors (Protease Inhibitor Cocktail Set Ill, Merck Calbiochem®) and 1 mg/mL lysozyme were added to the cell suspension. The suspension was then sonicated for 5 min (UltraSonic Processor VCX 750, Cole-Parmer Instrument Co.) with a micro probe (50% amplitude, 10 sec on/off) and then centrifuged at 100,000 g for 90 min (at 4° C.). The supernatant was loaded onto a Ni-NTA HiTrap column (5 mL, GE Heathcare, pre-equilibrated in lysis buffer). The column was washed with 10 column volumes of lysis buffer and eluted with lysis buffer containing 500 mM imidazole. The pooled protein peak fractions were concentrated using a 10 kDa centrifugal filter at 3500 g and 4° C. (Amicon Ultra-15 centrifugal filter unit with Ultracel-10 membrane from Millipore). Further purification of the concentrated protein was carried out using gel filtration chromatography on a HiLoad 26/600 Superdex 75 preparative grade column (GE Healthcare Life Sciences) using 50 mM Tris pH 7.5, 50 mM NaCl, 1 mM dithiothreitol, 1 mM MgCl2. Fractions containing the protein were pooled, concentrated as described above, and stored at −80° C.
The full length human COX-2 gene (accession number L15326) was amplified by PCR to generate an EcoRI-HindIII fragment containing an in-frame FLAG tag. This was subcloned into pFastBac 1 (Invitrogen). The COX2 FLAG plasmid was recombined into the baculovirus genome according to the BAC-to-BAC protocol described by Invitrogen. Transfection into Spodoptera frugiperda (Sf9) insect cells was performed using Cellfectin (Invitrogen), according to the manufacturer's protocol. […] Recombinant virus was added at a Multiplicity of Infection (MOI) of 5 and the culture was allowed to continue for 3 days. Cells were harvested using a continuous feed centrifuge run at 2500 g at a rate of approximately 2 L/min with cooling. The resultant cell slurry was re-centrifuged in pots (2500 g, 20 min, 4° C.) and the cell paste was stored at −80° C. […] The suspension was sonicated in 500 mL batches for 8×5 seconds at 10 u amplitude with the medium tip of an MSE probe sonicator and subsequently incubated at 4° C. for 90 min with gentle stirring. The lysate was centrifuged at 12000 rpm for 45 min at 4° C. in a Sorvall SLA1500 rotor. The supernatant (1400 mL) was added to 420 mL of 20 mM Tris-Cl pH 7.4, 150 mM NaCl, 0.1 mM EDTA to reduce the concentration of n-octyl-β-D-glucopyranoside to 1% w/v.

[1] = H-PGDS RapidFire MS assay, mean pIC50, read-out: Potency Range (mean pIC50) (converted)
[2] = in at least one experimental run, read-out: H-PGDS pIC50 value (converted)

T1 sequence (O60760 whole entry): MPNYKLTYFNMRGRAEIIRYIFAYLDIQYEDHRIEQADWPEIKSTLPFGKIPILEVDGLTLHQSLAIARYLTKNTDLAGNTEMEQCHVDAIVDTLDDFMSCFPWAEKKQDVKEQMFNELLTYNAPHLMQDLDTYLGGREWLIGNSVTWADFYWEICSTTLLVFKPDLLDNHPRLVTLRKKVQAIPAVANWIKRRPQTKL

SMILES | IC50 [1] [nM] | IC50 [2] [nM]
O=C(N[C@H]1CC[C@H](C2(O)CC2)CC1)c1cnc2cc(OC(F)F)ccc2c1 [Example 18, 7-(Difluoromethoxy)-N-(trans-4-(1-hydroxycyclopropyl)cyclohexyl)quinoline-3-carboxamide] | < 10 | 
CC(O)(CO[C@H]1CC[C@H](NC(=O)c2cnc3cc(OC(F)F)ccc3c2)CC1)C(F)(F)F (stereo partly drawn) [Example 19, 7-(Difluoromethoxy)-N-(trans-4-(3,3,3-trifluoro-2-hydroxy-2-methylpropoxy)cyclohexyl)quinoline-3-carboxamide] | 10 to 79.4 | 
NCCCOC[C@H]1CC[C@H](NC(=O)c2cnc3cc(OC(F)F)ccc3c2)CC1 [Example 23, N-(trans-4-((3-Aminopropoxy)methyl)cyclohexyl)-7-(difluoromethoxy)quinoline-3-carboxamide] | 10 to 79.4 | 
Cn1nnnc1N1CCC(NC(=O)c2cnc3cc(C4CC4)c(C#N)cc3c2)CC1 [Example 24, 6-Cyano-7-cyclopropyl-N-(1-(1-methyl-1H-tetrazol-5-yl)piperidin-4-yl)quinoline-3-carboxamide] | 10 to 79.4 | 
N#Cc1cc2cc(C(=O)N[C@H]3CCNC3=O)cnc2cc1C1CC1 [Example 25, (S)-6-Cyano-7-cyclopropyl-N-(2-oxopyrrolidin-3-yl)quinoline-3-carboxamide hydrochloride] | 10 to 79.4 | 25.1
N#Cc1cc2cc(C(=O)NC3CC(=O)Nc4ccccc43)cnc2cc1C1CC1 (centres unmarked) [Example 26, 6-Cyano-7-cyclopropyl-N-(2-oxo-1,2,3,4-tetrahydroquinolin-4-yl)quinoline-3-carboxamide] | < 10 | 
Cn1nnnc1N1CCC(NC(=O)c2cnc3cc(Br)c(Cl)cc3c2)CC1 [Example 27, 7-Bromo-6-chloro-N-(1-(1-methyl-1H-tetrazol-5-yl)piperidin-4-yl)quinoline-3-carboxamide] | 10 to 79.4 | 
COc1cccc2cc(C(=O)Nc3nccs3)cnc12 [Example 28, 8-Methoxy-N-(thiazol-2-yl)quinoline-3-carboxamide] | 10 to 79.4 | 
COc1cc2ncc(C(=O)NC3CCN(c4nnnn4C)CC3)cc2cc1C [Example 29, 7-Methoxy-6-methyl-N-(1-(1-methyl-1H-tetrazol-5-yl)piperidin-4-yl)quinoline-3-carboxamide] | 10 to 79.4 | 
COc1cc(F)c2cc(C(=O)NC3CCN(c4nnnn4C)CC3)cnc2c1 [Example 30, 5-Fluoro-7-methoxy-N-(1-(1-methyl-1H-tetrazol-5-yl)piperidin-4-yl)quinoline-3-carboxamide] | 10 to 79.4 | 
COc1c(Cl)ccc2cc(C(=O)NC3CCN(c4nnnn4C)CC3)cnc12 [Example 31, 7-Chloro-8-methoxy-N-(1-(1-methyl-1H-tetrazol-5-yl)piperidin-4-yl)quinoline-3-carboxamide] | 100 to 1000 | 
COc1cc2ncc(C(=O)NC3CCN(c4nnnn4C)CC3)cc2cc1Cl [Example 32, 6-Chloro-7-methoxy-N-(1-(1-methyl-1H-tetrazol-5-yl)piperidin-4-yl)quinoline-3-carboxamide] | 10 to 79.4 | 
COc1ccc2cc(C(=O)NC3CCN(c4nnnn4C)CC3)cnc2c1OC [Example 33, 7,8-Dimethoxy-N-(1-(1-methyl-1H-tetrazol-5-yl)piperidin-4-yl)quinoline-3-carboxamide] | 10 to 79.4 | 
Cn1nnnc1N1CCC(NC(=O)c2cnc3cc(C4CC4)c(Cl)cc3c2)CC1 [Example 34, 6-Chloro-7-cyclopropyl-N-(1-(1-methyl-1H-tetrazol-5-yl)piperidin-4-yl)quinoline-3-carboxamide] | < 10 | 
O=C(N[C@H]1CCNC1=O)c1cnc2cc(C3CC3)c(Cl)cc2c1 [Example 35, (S)-6-Chloro-7-cyclopropyl-N-(2-oxopyrrolidin-3-yl)quinoline-3-carboxamide hydrochloride] | < 10 | 
O=C(N[C@H]1CCCNC1=O)c1cnc2cc(C3CC3)c(Cl)cc2c1 [Example 36, (S)-6-Chloro-7-cyclopropyl-N-(2-oxopiperidin-3-yl)quinoline-3-carboxamide hydrochloride] | 10 to 79.4 | 15.8
O=C1CC(NC(=O)c2cnc3cc(C4CC4)c(Cl)cc3c2)c2ccccc2N1 (centres unmarked) [Example 37, 6-Chloro-7-cyclopropyl-N-(2-oxo-1,2,3,4-tetrahydroquinolin-4-yl)quinoline-3-carboxamide] | < 10 | 
O=C(N[C@H]1CONC1=O)c1cnc2cc(C3CC3)c(Cl)cc2c1 [Example 38, (S)-6-Chloro-7-cyclopropyl-N-(3-oxoisoxazolidin-4-yl)quinoline-3-carboxamide] | < 10 | 
CC(C)(O)[C@H]1CC[C@H](NC(=O)c2cnc3cc(C4CC4)c(Cl)cc3c2)CC1 [Example 39] | < 10 | 
C[C@]1(O)C[C@@H](NC(=O)c2cnc3cc(C4CC4)c(Cl)cc3c2)C1 [Example 40, 6-Chloro-7-cyclopropyl-N-((1s,3s)-3-hydroxy-3-methylcyclobutyl)quinoline-3-carboxamide] | 10 to 79.4 | 
O=C(N[C@H]1CCNC1=O)c1cnc2cc(C3CC3)c(F)cc2c1 [Example 41, (S)-7-cyclopropyl-6-fluoro-N-(2-oxopyrrolidin-3-yl)quinoline-3-carboxamide hydrochloride] | 10 to 79.4 | 
CC(C)(O)[C@H]1CC[C@H](NC(=O)c2cnc3cc(C4CC4)c(F)cc3c2)CC1 [Example 42, 7-Cyclopropyl-6-fluoro-N-(trans-4-(2-hydroxypropan-2-yl)cyclohexyl)quinoline-3-carboxamide] | < 10 | 
O=C(N[C@H]1CC[C@H](NCC(F)F)CC1)c1cnc2cc(C3CC3)c(F)cc2c1 [Example 43, 7-Cyclopropyl-N-(trans-4-((2,2-difluoroethyl)amino)cyclohexyl)-6-fluoroquinoline-3-carboxamide] | < 10 | 
Cn1nnnc1N1CCC(NC(=O)c2cnc3cc(C4CC4)ccc3c2)CC1 [Example 44, 7-Cyclopropyl-N-(1-(1-methyl-1H-tetrazol-5-yl)piperidin-4-yl)quinoline-3-carboxamide] | < 10 | 
O=C(N[C@H]1CCNC1=O)c1cnc2cc(C3CC3)ccc2c1 [Example 45, (S)-7-Cyclopropyl-N-(2-oxopyrrolidin-3-yl)quinoline-3-carboxamide hydrochloride] | 10 to 79.4 | 
COc1cc2ncc(C(=O)NC3CCN(c4nnnn4C)CC3)cc2cc1F [Example 46, 6-Fluoro-7-methoxy-N-(1-(1-methyl-1H-tetrazol-5-yl)piperidin-4-yl)quinoline-3-carboxamide] | 100 to 1000 | 126
COc1ccc2cc(C(=O)Nc3nccs3)cnc2c1F [Example 47, 8-Fluoro-7-methoxy-N-(thiazol-2-yl)quinoline-3-carboxamide hydrochloride] | 10 to 79.4 | 
O=C(N[C@H]1CC[C@H](NCC(F)F)CC1)c1cnc2cc(OC(F)F)c(F)cc2c1 [Example 49, N-(trans-4-((2,2-Difluoroethyl)amino)cyclohexyl)-7-(difluoromethoxy)-6-fluoroquinoline-3-carboxamide] | 10 to 79.4 | 
CC(C)CN1CC[C@H](NC(=O)c2cnc3cc(OC(F)F)c(F)cc3c2)C1=O [Example 50, (S)-7-(Difluoromethoxy)-6-fluoro-N-(1-isobutyl-2-oxopyrrolidin-3-yl)quinoline-3-carboxamide] | 10 to 79.4 | 
